Results on one molecule are retold here after patent US6642263B2, “Modulators of Rho C activity” (Iconix Pharmaceuticals Inc., priority 2001, dated 2003).

This assay deals with T1, RhoC (Homo sapiens, UniProt P08134).
T1 construct: cDNAs corresponding to the complete open reading frame of RhoC were PCR amplified; expressed in transfected cells; host or cells: Saccharomyces cerevisiae strain EIS20-2B, pARC35B-derived expression plasmid integrated at LYS2, galactose-induced
As to the kind of experiment: Yeast growth restoration assay (RhoC expressed in yeast, surrogate genetic assay). It is filed as cell-based, mammalian. Conditions: retested in dilutions from 0.5 μM to 128 μM; 30° C., 40-42 hrs, OD600. On the procedure: Compounds of the invention are assayed for activity using any convenient biochemical or biological assay. For example, one can examine compounds for binding to recombinantly-expressed RhoC, assay compounds for their ability to reverse a RhoC-induced phenotype in a heterologous cell (see e.g., WO99/24563, incorporated herein by reference), or using one or more of the experimental protocols described in the references cited herein. […] Compounds were also examined for inhibition of stress fibers, by stimulating NIH 3T3 cells with 10 μM LPA in DMEM+0.2% FBS in the presence of test compounds for 4 hours.
(A) cDNAs corresponding to the complete open reading frame of RhoC were PCR amplified from pooled total cDNAs initially synthesized from placental, fetal brain, and fetal liver poly(A)^+ mRNAs (Clontech Laboratories, Inc.). […]
After PCR, approximately 200 ng of amplified cDNA was cotransformed with approximately 100 ng of vector into yeast and transformants were selected for leucine prototrophy. […] Plasmids from at least three independent transformants were subsequently rescued into the E. coli strain DH5alpha via electroporation, and further characterized by restriction enzyme analysis and DNA sequencing of the RhoC open reading frame. […]

T1 sequence (P08134 whole entry): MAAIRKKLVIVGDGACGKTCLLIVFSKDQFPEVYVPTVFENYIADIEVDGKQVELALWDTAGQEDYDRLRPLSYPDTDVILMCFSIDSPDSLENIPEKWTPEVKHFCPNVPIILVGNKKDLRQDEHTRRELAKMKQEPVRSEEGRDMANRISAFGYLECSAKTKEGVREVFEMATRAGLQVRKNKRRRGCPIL

In the case of `Cc1ccc(NS(=O)(=O)CSc2nc3ccccc3s2)cc1` [2-(4-methylphenylsulfamyl)methylthio-benzo[d]thiazole], the “potency / activity (growth restoration of RhoC-expressing yeast)” value is on record as “only weak activity”.
